The values below come from article PMC8877061, “Antifungal and Antibiofilm Activity of Cyclic Temporin L Peptide Analogues against Albicans and Non-Albicans Candida Species” (Pharmaceutics, 2022).

Where two headings read alike, the source gives them in different places. Positions of bridges follow the written chain, without caps; N, C: chain ends. Non-standard residues stand in square brackets, D forms with d. Residues, ends and D or L forms follow the SMILES beside them. Triazole bridges read from a SMILES are 1,4-linked. dLys(N3) = [N-]=[N+]=NCCCC[C@@H](N)C(=O)O; Lys(N3) = [N-]=[N+]=NCCCC[C@H](N)C(=O)O; S5 = C=CCCC[C@](C)(N)C(=O)O; dPra = C#CC[C@@H](N)C(=O)O; Pra = C#CC[C@H](N)C(=O)O

For test [1], the system named is C. parapsilosis DSM 5784. The format is cell-based.
The test system of test [2] is C. albicans ATCC 90028. The test is classed as cell-based. Here is the method: C. albicans ATCC 90028, C. auris DSM 21092, C. glabrata DSM 11226, C. tropicalis DSM11951 and C. parapsilosis DSM 4874 grown on YPD Agar (1% w/v yeast extract, 2% w/v peptone, 2% w/v glucose, 1.5% Agar) were cultured in Tryptone soya broth supplemented with 0.1% glucose for 16–18 h at 37 °C, washed twice using sterile phosphate-buffered saline (PBS) and standardized to […] as required for the experiments. RPMI1640 medium (Thermo Fisher Scientific, Waltham, MA, USA) buffered to a pH of 7.0 with 0.165 M MOPS was used for growing the biofilms of all Candida species.
The antifungal activity of peptides against all five Candida species was determined according to CLSI-M27-A3 [33], as reported previously. Briefly, the compounds were tested at concentrations ranging from […] to 50 μM, and the organism suspensions were adjusted to an inoculum of 10^6 cell/mL at OD 590 nm in RPMI 1640, added to the 96-well plate and incubated at 37 °C for 24 h. The minimum inhibitory concentration (MIC) values were determined as the lowest concentration inhibiting fungal growth at 590 nm using a microplate reader (Synergy™ H4; BioTek Instruments, Inc., Winooski, VT, USA). […] The MFC was the lowest concentration that yielded no colony growth on the agar. The MFC/MIC ratio was calculated to determine whether the substance had fungistatic (MFC/MIC ≥ 4) or fungicidal (MFC/MIC < 4) activity.

Setting [3] is: CLSI-M27-A3, RPMI 1640, 10^6 cell/mL, 37 °C, 24 h, read at 590 nm, tested 6.5 to 50 μM.

In the case of `CC[C@H](C)[C@@H]1NC(=O)[C@H](CCCNC(=N)N)NC(=O)CNC(=O)[C@H](NC(=O)[C@H](Cc2ccccc2)NC(=O)[C@H](CCCCN)NC(=O)[C@H](CO)NC(=O)[C@H](Cc2ccccc2)NC(=O)[C@H](Cc2c[nH]c3ccccc23)NC(=O)[C@@H]2CCCN2C(=O)[C@@H](NC(=O)[C@@H](N)Cc2ccccc2)C(C)C)CCCCNC(=O)CC[C@@H](C(N)=O)NC1=O` [compound 1] (H-FVPWFSKF[dK]GRIE-NH2; lactam 9-13; N-terminus assumed), the “MIC, C. parapsilosis DSM 5784” value in test [1] (setting [3]) was more than 50 µM. In addition, the “MIC, C. albicans ATCC 90028” value in test [2] (setting [3]) is recorded as more than 50 µM.
In the case of `CC(C)C[C@H](NC(=O)[C@@H]1CCC(=O)NCCCC[C@H](NC(=O)[C@H](CCCCN)NC(=O)[C@H](CO)NC(=O)[C@H](Cc2ccccc2)NC(=O)[C@H](Cc2c[nH]c3ccccc23)NC(=O)[C@@H]2CCCN2C(=O)[C@@H](NC(=O)[C@@H](N)Cc2ccccc2)C(C)C)C(=O)N[C@H](CC(C)C)C(=O)NCC(=O)N[C@@H](CCCNC(=N)N)C(=O)N1)C(N)=O` [compound 2] (H-FVPWFSKK[dL]GREL-NH2; lactam 8-12; N-terminus assumed), the “MIC, C. parapsilosis DSM 5784” value in test [1] (DSM 5784, 24 h) was more than 50 µM. Also, the “MIC, C. albicans ATCC 90028” value in test [2] (ATCC 90028, 24 h) is given as more than 50 µM.
`CC[C@H](C)[C@H](NC(=O)[C@H](CCCNC(=N)N)NC(=O)CNC(=O)[C@H]1CCC(=O)NCCCC[C@H](NC(=O)[C@H](Cc2c[nH]c3ccccc23)NC(=O)[C@@H]2CCCN2C(=O)[C@@H](NC(=O)[C@@H](N)Cc2ccccc2)C(C)C)C(=O)N[C@@H](CO)C(=O)N[C@@H](CCCCN)C(=O)N[C@@H](Cc2ccccc2)C(=O)N1)C(=O)N[C@@H](CC(C)C)C(N)=O` [compound 4] (H-FVPWKSKF[dE]GRIL-NH2; lactam 5-9; N-terminus assumed): in test [1] (DSM 5784, 24 h), the “MIC, C. parapsilosis DSM 5784” value is listed as more than 50 µM. The “MIC, C. albicans ATCC 90028” value in test [2] (ATCC 90028, 24 h) is more than 50 µM.
`CC[C@H](C)[C@H](NC(=O)[C@H](CCCNC(=N)N)NC(=O)CNC(=O)[C@@H](CC(C)C)NC(=O)[C@@H]1CCC(=O)NCCCC[C@H](NC(=O)[C@@H]2CCCN2C(=O)[C@@H](NC(=O)[C@@H](N)Cc2ccccc2)C(C)C)C(=O)N[C@@H](Cc2ccccc2)C(=O)N[C@@H](CO)C(=O)N[C@@H](CCCCN)C(=O)N1)C(=O)N[C@@H](CC(C)C)C(N)=O` [compound 5] (H-FVPKFSKE[dL]GRIL-NH2; lactam 4-8; N-terminus assumed): in test [1] (DSM 5784, 24 h), the “MIC, C. parapsilosis DSM 5784” value is recorded as more than 50 µM. Also, in test [2] (ATCC 90028, 24 h), the “MIC, C. albicans ATCC 90028” value was more than 50 µM.
As for `CC[C@H](C)[C@@H]1NC(=O)[C@H](CCCNC(=N)N)NC(=O)CNC(=O)[C@H](NC(=O)[C@H](Cc2ccccc2)NC(=O)[C@H](CCCCN)NC(=O)[C@H](CO)NC(=O)[C@H](Cc2ccccc2)NC(=O)[C@H](Cc2c[nH]c3ccccc23)NC(=O)[C@@H]2CCCN2C(=O)[C@@H](NC(=O)[C@@H](N)Cc2ccccc2)C(C)C)Cc2cn(nn2)CCCC[C@@H](C(N)=O)NC1=O` [compound 6] (H-FVPWFSKF[dPra]GRI[Lys(N3)]-NH2; triazole 9-13; N-terminus assumed), the “MIC, C. parapsilosis DSM 5784” value in test [1] (DSM 5784, 24 h) is listed as more than 50 µM. Further, in test [2] (ATCC 90028, 24 h), the “MIC, C. albicans ATCC 90028” value is more than 50 µM.
For `CC[C@H](C)[C@H](NC(=O)[C@H](CCCNC(=N)N)NC(=O)[C@@H]1CCCCn2cc(nn2)C[C@H](NC(=O)[C@H](Cc2ccccc2)NC(=O)[C@H](Cc2c[nH]c3ccccc23)NC(=O)[C@@H]2CCCN2C(=O)[C@@H](NC(=O)[C@@H](N)Cc2ccccc2)C(C)C)C(=O)N[C@@H](CCCCN)C(=O)N[C@@H](Cc2ccccc2)C(=O)N[C@H](CC(C)C)C(=O)N1)C(=O)N[C@@H](CC(C)C)C(N)=O` [compound 8] (H-FVPWF[Pra]KF[dL][Lys(N3)]RIL-NH2; triazole 6-10; N-terminus assumed), in test [1] (DSM 5784, 24 h), the “MIC, C. parapsilosis DSM 5784” value is reported as more than 50 µM. In test [2] (ATCC 90028, 24 h), the “MIC, C. albicans ATCC 90028” value is recorded as more than 50 µM.
Regarding `CC[C@H](C)[C@H](NC(=O)[C@H](CCCNC(=N)N)NC(=O)CNC(=O)[C@H]1CCCCn2cc(nn2)C[C@H](NC(=O)[C@H](Cc2c[nH]c3ccccc23)NC(=O)[C@@H]2CCCN2C(=O)[C@@H](NC(=O)[C@@H](N)Cc2ccccc2)C(C)C)C(=O)N[C@@H](CO)C(=O)N[C@@H](CCCCN)C(=O)N[C@@H](Cc2ccccc2)C(=O)N1)C(=O)N[C@@H](CC(C)C)C(N)=O` [compound 9] (H-FVPW[Pra]SKF[dLys(N3)]GRIL-NH2; triazole 5-9; N-terminus assumed), in test [1] (DSM 5784, 24 h), the “MIC, C. parapsilosis DSM 5784” value is on record as more than 50 µM. The “MIC, C. albicans ATCC 90028” value in test [2] (ATCC 90028, 24 h) is more than 50 µM.
In the case of `CC[C@H](C)[C@H](NC(=O)[C@H](CCCNC(=N)N)NC(=O)CNC(=O)[C@@H](CC(C)C)NC(=O)[C@@H]1CCCCn2cc(nn2)C[C@H](NC(=O)[C@@H]2CCCN2C(=O)[C@@H](NC(=O)[C@@H](N)Cc2ccccc2)C(C)C)C(=O)N[C@@H](Cc2ccccc2)C(=O)N[C@@H](CO)C(=O)N[C@@H](CCCCN)C(=O)N1)C(=O)N[C@@H](CC(C)C)C(N)=O` [compound 10] (H-FVP[Pra]FSK[Lys(N3)][dL]GRIL-NH2; triazole 4-8; N-terminus assumed), the “MIC, C. parapsilosis DSM 5784” value in test [1] (DSM 5784, 24 h) is reported as more than 50 µM. In addition, in test [2] (ATCC 90028, 24 h), the “MIC, C. albicans ATCC 90028” value is on record as more than 50 µM.
As for `CC(C)C[C@H](NC(=O)[C@@H]1CCC(=O)NCCCC[C@H](NC(=O)[C@H](Cc2c[nH]c3ccccc23)NC(=O)[C@@H]2CCCN2C(=O)[C@@H](NC(=O)[C@@H](N)Cc2ccccc2)C(C)C)C(=O)N[C@@H](CO)C(=O)N[C@@H](CCCCN)C(=O)N[C@@H](Cc2ccccc2)C(=O)N[C@H](CC(C)C)C(=O)NCC(=O)N[C@@H](CCCNC(=N)N)C(=O)N1)C(N)=O` [compound 12] (H-FVPWKSKF[dL]GREL-NH2; lactam 5-12; N-terminus assumed), the “MIC, C. parapsilosis DSM 5784” value in test [1] (DSM 5784, 24 h) is more than 50 µM. Also, the “MIC, C. albicans ATCC 90028” value in test [2] (ATCC 90028, 24 h) is given as more than 50 µM.
On to `CC[C@H](C)[C@@H]1NC(=O)[C@H](CCCNC(=N)N)NC(=O)CNC(=O)[C@@H](CC(C)C)NC(=O)[C@H](Cc2ccccc2)NC(=O)[C@H](CCCCN)NC(=O)[C@@H](NC(=O)[C@H](Cc2ccccc2)NC(=O)[C@H](Cc2c[nH]c3ccccc23)NC(=O)[C@@H]2CCCN2C(=O)[C@@H](NC(=O)[C@@H](N)Cc2ccccc2)C(C)C)Cc2cn(nn2)CCCC[C@@H](C(N)=O)NC1=O` [compound 13] (H-FVPWF[Pra]KF[dL]GRI[Lys(N3)]-NH2; triazole 6-13; N-terminus assumed), for which the “MIC, C. parapsilosis DSM 5784” value in test [1] (DSM 5784, 24 h) is more than 50 µM. Moreover, the “MIC, C. albicans ATCC 90028” value in test [2] (ATCC 90028, 24 h) is listed as more than 50 µM.
For the compound `CC(C)C[C@H](NC(=O)[C@@H]1CCCCn2cc(nn2)C[C@H](NC(=O)[C@H](Cc2c[nH]c3ccccc23)NC(=O)[C@@H]2CCCN2C(=O)[C@@H](NC(=O)[C@@H](N)Cc2ccccc2)C(C)C)C(=O)N[C@@H](CO)C(=O)N[C@@H](CCCCN)C(=O)N[C@@H](Cc2ccccc2)C(=O)N[C@H](CC(C)C)C(=O)NCC(=O)N[C@@H](CCCNC(=N)N)C(=O)N1)C(N)=O` [compound 14] (H-FVPW[Pra]SKF[dL]GR[Lys(N3)]L-NH2; triazole 5-12; N-terminus assumed), the “MIC, C. parapsilosis DSM 5784” value in test [1] (DSM 5784, 24 h) is more than 50 µM. In addition, the “MIC, C. albicans ATCC 90028” value in test [2] (ATCC 90028, 24 h) is more than 50 µM.
In the case of `CC[C@H](C)[C@H](NC(=O)[C@H](CCCNC(=N)N)NC(=O)[C@]1(C)CCCC=CCCC[C@](C)(NC(=O)[C@H](Cc2ccccc2)NC(=O)[C@H](Cc2c[nH]c3ccccc23)NC(=O)[C@@H]2CCCN2C(=O)[C@@H](NC(=O)[C@@H](N)Cc2ccccc2)C(C)C)C(=O)N[C@@H](CCCCN)C(=O)N[C@@H](Cc2ccccc2)C(=O)N[C@H](CC(C)C)C(=O)N1)C(=O)N[C@@H](CC(C)C)C(N)=O` [compound 17] (H-FVPWF[S5]KF[dL][S5]RIL-NH2; staple 6-10; N-terminus assumed), the “MIC, C. parapsilosis DSM 5784” value in test [1] (DSM 5784, 24 h) is listed as more than 50 µM. The “MIC, C. albicans ATCC 90028” value in test [2] (ATCC 90028, 24 h) is given as more than 50 µM.
